CC50, IC50 and EC50 data for 22 compounds are collected here from patent publication US11236087B2, “Highly active pyrazolo-piperidine substituted indole-2-carboxamides active against the hepatitis B virus (HBV)” (AiCuris GmbH & Co. KG, priority 2017, dated 2022).

SMILES strings stand for the structures. pEC50, pIC50: −log10 of the molar value. A value given as a limit tells only on which side of the number the result lay.

A short description of series [1]: Cell viability assay (AlamarBlue) in HepAD38 cells. The note with it: human.
The next series addresses T1, HBV core protein (UniProt P03146).
T1 construct: fused on or other part: BODIPY-FL maleimide label on the C-terminal Cys150
Description: Biochemical capsid assembly assay (fluorescence quenching). Details: species or system hepatitis B virus. The note with it: read-out: Assembly Activity (IC50); BODIPY-FL labelled core protein, 300 μM NaCl, read 6 min after start. A digest of the protocol:
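Assembly-induced fluorescence quenching (477/525 nm) was measured 6 min after NaCl addition ([…]), against 2.5 M and 0 M NaCl controls. The labelled C150 core dimer (truncated at 149) at 1.0-2.0 μM in HEPES pH 7.5 was tested with eight half-log compound dilutions, top 100, 31.6 or 10 μM. EC50 was obtained by non-linear fit from triplicates run three times.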

A further series relates to HBV. Description: Determination of HBV DNA from the supernatants of HepAD38 cells (anti-HBV activity). It is filed as cell-based, hepatitis B virus. The note with it: Hepatitis B virus, 144 h; HBV DNA in HepAD38 supernatant, day 6, qPCR; read-out: Cell Activity (EC50). The method, boiled down:
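Supernatant viral DNA was measured by LightCycler qPCR, calibrated with pCH-9/3091 plasmid, 6 days after tetracycline-free HepAD38 cultures received half-log serial compound dilutions; untreated and tetracycline-treated cells served as controls; EC50 was fitted by non-linear regression.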

T1 sequence (P03146 whole entry, looked up, the tested form may be a part): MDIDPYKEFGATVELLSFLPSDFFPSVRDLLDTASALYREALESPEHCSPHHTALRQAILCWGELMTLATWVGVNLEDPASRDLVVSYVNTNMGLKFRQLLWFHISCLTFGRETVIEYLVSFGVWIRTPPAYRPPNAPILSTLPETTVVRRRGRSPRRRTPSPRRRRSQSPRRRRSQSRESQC

By CC50 is commonly meant the concentration at which the toxic effect on the cells reaches its halfway point. Broadly, the pIC50 is the IC50 on a negative log10 scale, so that one unit is a factor of ten. The pEC50 is the negative decadic logarithm of the EC50, by convention in mol/L. Compound `COCC1(N(C)C(=O)c2n[nH]c3c2CN(C(=O)c2cc4c(C(F)F)cccc4[nH]2)CC3)CC1` [Example 299, 5-[4-(difluoromethyl)-1H-indole-2-carbonyl]-N-[1-(methoxymethyl)cyclopropyl]-N-methyl-1H,4H,5H,6H,7H-pyrazolo[4,3-c]pyridine-3-carboxamide] yielded a CC50 at 6 days in series [1] greater than 10 µM. In addition, the pIC50 at HBV core protein was greater than 5.30. Moreover, the pEC50 in the series with HBV is greater than 6.00.
As for `COCC1(N(C)C(=O)c2n[nH]c3c2CN(C(=O)c2cc4cc(F)c(F)cc4[nH]2)CC3)CC1` [Example 300, 5-(5,6-difluoro-1H-indole-2-carbonyl)-N-[1-(methoxymethyl)cyclopropyl]-N-methyl-1H,4H,5H,6H,7H-pyrazolo[4,3-c]pyridine-3-carboxamide], the CC50 at 6 days in series [1] was greater than 10 µM. Further, the pIC50 at HBV core protein was greater than 5.30. The pEC50 in the series on HBV was greater than 6.00.
The compound `COCC1(N(C)C(=O)c2n[nH]c3c2CN(C(=O)c2cc4c(C(F)(F)F)cccc4[nH]2)CC3)CC1` [Example 302, N-[1-(methoxymethyl)cyclopropyl]-N-methyl-5-[4-(trifluoromethyl)-1H-indole-2-carbonyl]-1H,4H,5H,6H,7H-pyrazolo[4,3-c]pyridine-3-carboxamide] registered a CC50 at 6 days in series [1] greater than 10 µM. Besides, the pIC50 at HBV core protein was greater than 5.30. Besides, the pEC50 in the series with HBV is greater than 6.00.
On to `COCC1(N(CC(F)F)C(=O)c2n[nH]c3c2CN(C(=O)c2cc4ccccc4[nH]2)CC3)CC1` [Example 303, N-(2,2-difluoroethyl)-5-(1H-indole-2-carbonyl)-N-[1-(methoxymethyl)cyclopropyl]-1H,4H,5H,6H,7H-pyrazolo[4,3-c]pyridine-3-carboxamide], for which, in series [1], the CC50 at 6 days was greater than 10 µM. The pIC50 at HBV core protein is greater than 5.30. Besides, the pEC50 with HBV is greater than 6.00.
Taken in the same sequence, the figures for `COCC1(N(C(=O)c2n[nH]c3c2CN(C(=O)c2cc4ccccc4[nH]2)CC3)C(C)C)CC1` [Example 304, 5-(1H-indole-2-carbonyl)-N-[1-(methoxymethyl)cyclopropyl]-N-(propan-2-yl)-1H,4H,5H,6H,7H-pyrazolo[4,3-c]pyridine-3-carboxamide] were greater than 10 µM, greater than 5.30 and greater than 6.00.
`COCC1(N(C)C(=O)c2n[nH]c3c2CN(C(=O)c2cc4c(F)cc(Cl)cc4[nH]2)CC3)CC1` [Example 305, 5-(6-chloro-4-fluoro-1H-indole-2-carbonyl)-N-[1-(methoxymethyl)cyclopropyl]-N-methyl-1H,4H,5H,6H,7H-pyrazolo[4,3-c]pyridine-3-carboxamide]: the CC50 at 6 days in series [1] was greater than 10 µM. For the same compound, the pIC50 at HBV core protein is greater than 5.30. Also, the pEC50 in the series with HBV is greater than 6.00.
In series [1], `COCC1(N(C)C(=O)c2n[nH]c3c2CN(C(=O)c2cc4c(Cl)ccc(F)c4[nH]2)CC3)CC1` [Example 306, 5-(4-chloro-7-fluoro-1H-indole-2-carbonyl)-N-[1-(methoxymethyl)cyclopropyl]-N-methyl-1H,4H,5H,6H,7H-pyrazolo[4,3-c]pyridine-3-carboxamide] returned a half-maximal cytotoxic concentration (CC50) at 6 days greater than 10 µM. In addition, the pIC50 at HBV core protein was greater than 5.30. In addition, the pEC50 in the series on HBV was greater than 6.00.
In series [1], `COCC1(N(C)C(=O)c2n[nH]c3c2CN(C(=O)c2cc4c(F)c(F)cc(F)c4[nH]2)CC3)CC1` [Example 307, N-[1-(methoxymethyl)cyclopropyl]-N-methyl-5-(4,5,7-trifluoro-1H-indole-2-carbonyl)-1H,4H,5H,6H,7H-pyrazolo[4,3-c]pyridine-3-carboxamide] showed a CC50 at 6 days greater than 10 µM. Also, the pIC50 at HBV core protein is greater than 5.30. For the same compound, in the series with HBV, the pEC50 is greater than 6.00.
In turn, `COCC1(N(C)C(=O)c2n[nH]c3c2CN(C(=O)c2cc4cccc(F)c4[nH]2)CC3)CC1` [Example 308, 5-(7-fluoro-1H-indole-2-carbonyl)-N-[1-(methoxymethyl)cyclopropyl]-N-methyl-1H,4H,5H,6H,7H-pyrazolo[4,3-c]pyridine-3-carboxamide] showed a CC50 at 6 days in series [1] greater than 10 µM. The pIC50 at HBV core protein was greater than 5.30. The pEC50 with HBV is greater than 6.00.
`COCC1(N(C)C(=O)c2n[nH]c3c2CN(C(=O)c2cc4cc(F)cc(F)c4[nH]2)CC3)CC1` [Example 309, 5-(5,7-difluoro-1H-indole-2-carbonyl)-N-[1-(methoxymethyl)cyclopropyl]-N-methyl-1H,4H,5H,6H,7H-pyrazolo[4,3-c]pyridine-3-carboxamide] displayed a CC50 at 6 days in series [1] greater than 10 µM. Further, the pIC50 on HBV core protein is greater than 5.30. Besides, the pEC50 in the series with HBV is greater than 6.00.
In series [1], `CN(C(=O)c1n[nH]c2c1CN(C(=O)c1cc3ccccc3[nH]1)CC2)C1(C(F)(F)F)CC1` [Example 310, 5-(1H-indole-2-carbonyl)-N-methyl-N-[1-(trifluoromethyl)cyclopropyl]-1H,4H,5H,6H,7H-pyrazolo[4,3-c]pyridine-3-carboxamide] returned a CC50 at 6 days greater than 10 µM. The negative logarithm of the IC50 (pIC50) on HBV core protein was greater than 4.00. The pEC50 in the series on HBV is 4.60 to 6.00.
Compound `CN(C(=O)c1n[nH]c2c1CN(C(=O)c1cc3ccccc3[nH]1)CC2)C1(c2ccccn2)CC1` [Example 311, 5-(1H-indole-2-carbonyl)-N-methyl-N-[1-(pyridin-2-yl)cyclopropyl]-1H,4H,5H,6H,7H-pyrazolo[4,3-c]pyridine-3-carboxamide] gave a CC50 at 6 days in series [1] greater than 10 µM. The pIC50 at HBV core protein is greater than 5.30. In the series with HBV, the pEC50 is greater than 6.00.
On to `C#CCN(C)C(=O)c1n[nH]c2c1CN(C(=O)c1cc3ccccc3[nH]1)CC2` [Example 312, 5-(1H-indole-2-carbonyl)-N-methyl-N-(prop-2-yn-1-yl)-1H,4H,5H,6H,7H-pyrazolo[4,3-c]pyridine-3-carboxamide], for which, in series [1], the CC50 at 6 days was greater than 10 µM. In addition, the pIC50 on HBV core protein is greater than 5.30. Moreover, the pEC50 in the series with HBV is greater than 6.00.
In the case of `COCC1(N(CC(F)(F)F)C(=O)c2n[nH]c3c2CN(C(=O)c2cc4ccccc4[nH]2)CC3)CC1` [Example 313, 5-(1H-indole-2-carbonyl)-N-[1-(methoxymethyl)cyclopropyl]-N-(2,2,2-trifluoroethyl)-1H,4H,5H,6H,7H-pyrazolo[4,3-c]pyridine-3-carboxamide], the CC50 at 6 days in series [1] is greater than 10 µM. In addition, the pIC50 on HBV core protein is greater than 5.30. Besides, the pEC50 in the series on HBV is greater than 6.00.
Taken in the same sequence, the figures for `C#CCOCC1(N(C)C(=O)c2n[nH]c3c2CN(C(=O)c2cc4ccccc4[nH]2)CC3)CC1` [Example 315, 5-(1H-indole-2-carbonyl)-N-methyl-N-{1-[(prop-2-yn-1-yloxy)methyl]cyclopropyl}-1H,4H,5H,6H,7H-pyrazolo[4,3-c]pyridine-3-carboxamide] were greater than 10 µM, greater than 5.30 and greater than 6.00.
Regarding `CN(Cc1cn(C)nn1)C(=O)c1n[nH]c2c1CN(C(=O)c1cc3ccccc3[nH]1)CC2` [Example 316, 5-(1H-indole-2-carbonyl)-N-methyl-N-[(1-methyl-1H-1,2,3-triazol-4-yl)methyl]-1H,4H,5H,6H,7H-pyrazolo[4,3-c]pyridine-3-carboxamide], the CC50 at 6 days in series [1] was greater than 10 µM. Further, the pIC50 at HBV core protein was greater than 5.30. The pEC50 in the series with HBV was 4.60 to 6.00.
In series [1], `C=Cc1scnc1-c1n[nH]c2c1CN(C(=O)c1cc3ccccc3[nH]1)CC2` [Example 317, 2-[3-(5-ethenyl-1,3-thiazol-4-yl)-1H,4H,5H,6H,7H-pyrazolo[4,3-c]pyridine-5-carbonyl]-1H-indole] yielded a CC50 at 6 days greater than 10 µM. Besides, the pIC50 at HBV core protein was greater than 5.30. In addition, in the series on HBV, the pEC50 is greater than 6.00.
For `CN(C(=O)c1n[nH]c2c1CN(C(=O)c1cc3ccccc3[nH]1)CC2)C1(COC(F)F)CC1` [Example 318, N-{1-[(difluoromethoxy)methyl]cyclopropyl}-5-(1H-indole-2-carbonyl)-N-methyl-1H,4H,5H,6H,7H-pyrazolo[4,3-c]pyridine-3-carboxamide], in that order: greater than 10 µM, greater than 5.30 and greater than 6.00.
Consider `CN(C(=O)c1[nH]nc2c1CN(C(=O)c1cc3c(F)cccc3[nH]1)CC2)C1CC1` [Example 322, N-cyclopropyl-5-(4-fluoro-1H-indole-2-carbonyl)-N-methyl-2H,4H,5H,6H,7H-pyrazolo[4,3-c]pyridine-3-carboxamide], for which, in series [1], the CC50 at 6 days is greater than 10 µM. Besides, on HBV core protein, the pIC50 was greater than 5.30. Moreover, the pEC50 with HBV was greater than 6.00.
Turning to `CN(C(=O)c1[nH]nc2c1CN(C(=O)c1cc3c(F)cc(F)cc3[nH]1)CC2)C1CC1` [Example 323, N-cyclopropyl-5-(4,6-difluoro-1H-indole-2-carbonyl)-N-methyl-2H,4H,5H,6H,7H-pyrazolo[4,3-c]pyridine-3-carboxamide], the CC50 at 6 days in series [1] was greater than 10 µM. The negative-log IC50 (pIC50) on HBV core protein is greater than 5.30. In the series with HBV, the negative-log EC50 (pEC50) was greater than 6.00.
Taken in the same sequence, the figures for `CN(C(=O)c1[nH]nc2c1CN(C(=O)c1cc3c(Cl)c(F)ccc3[nH]1)CC2)C1CC1` [Example 324, 5-(4-chloro-5-fluoro-1H-indole-2-carbonyl)-N-cyclopropyl-N-methyl-2H,4H,5H,6H,7H-pyrazolo[4,3-c]pyridine-3-carboxamide] were greater than 10 µM, greater than 5.30 and greater than 6.00.
For `CN(C(=O)c1[nH]nc2c1CN(C(=O)c1cc3ccc(Cl)cc3[nH]1)CC2)C1CC1` [Example 325, 5-(6-chloro-1H-indole-2-carbonyl)-N-cyclopropyl-N-methyl-2H,4H,5H,6H,7H-pyrazolo[4,3-c]pyridine-3-carboxamide], the CC50 at 6 days in series [1] is greater than 10 µM. Moreover, the pIC50 on HBV core protein is greater than 5.30. In the series with HBV, the pEC50 was greater than 6.00.
